In brackets after ≈: the same amount, converted by molar mass.
Experiments:
[1] = Metabolic stability in rat intestinal microsomes assessed as compound remaining after 60 mins in absence of NADPH/UDPGA; format: ADME, Intestine, Microsome; conditions: intestinal microsomes, read-out: Stability
[2] = Clearance in rat liver microsomes; format: ADME, microsome
[3] = Metabolic stability in rat intestinal microsomes assessed as compound remaining after 60 mins in presence of NADPH; format: ADME, Intestine, Microsome; conditions: read-out: Stability
[4] = Clearance in rat at 1 mg/kg, iv; format: ADME, organism-based; conditions: in vivo
[5] = Oral bioavailability in rat at 5 mg/kg; format: ADME, organism-based; conditions: in vivo
[6] = Apparent permeability across apical to basolateral side in MDCK cells; format: ADME, cell-based, Canis lupus familiaris; conditions: dog
[7] = Efflux ratio of apparent permeability in MDCK cells; conditions: dog
Plasma [8] = test: Drug metabolism in rat assessed as 6-((R)-1-(6-(5-(1-ethyl-1H-pyrazol-4-yl)-1H-pyrazolo[3,4-c]pyridin-3-yl)pyridin-2-yl)piperidin-3-ylamino)-3,4,5-trihydroxytetrahydro-2H-pyran-2-carboxylic acid metabolite formation in plasma at 5 mg/kg, po; format: ADME, organism-based; conditions: in vivo
[9] = Kinetic solubility of compound at pH 7.4; conditions: buffer
[10] = Metabolic stability in rat intestinal microsomes assessed as compound remaining after 60 mins in presence of UDPGA; format: ADME, Intestine, Microsome; conditions: read-out: Stability
Plasma [11] = test: Drug metabolism in rat assessed as M1 metabolite formation in plasma at 5 mg/kg, po; format: ADME, organism-based; conditions: in vivo
[12] = Clearance in rat hepatocytes; format: ADME, cell-based, Hepatocyte
[13] = Metabolic stability in rat intestinal microsomes assessed as compound remaining after 60 mins in presence of NADPH/UDPGA; format: ADME, Intestine, Microsome; conditions: intestinal microsomes, read-out: Stability
Plasma [14] = test: Drug level in rat plasma treated with N4-Phenylpyrimidine-2,4-diamine at 5 mg/kg, po; format: ADME, organism-based; conditions: in vivo

remaining at 1 h [1]: 96%
CLhep predicted [2]: 24 mL/min/kg
remaining at 1 h [3]: 83%
clearance [4]: 8 mL/min/kg
bioavailability [5]: 1%
Papp A→B [6]: 0.4 ×10⁻⁶ cm/s
efflux ratio [7]: 56
Drug metabolism (Plasma [8]): Metabolite_Detected
solubility kinetic [9]: 116 µM (≈ 45.1 µg/mL)
remaining at 1 h [10]: 15%
Drug metabolism (Plasma [11]): Metabolite_Detected
CLhep predicted [12]: 14 mL/min/kg
remaining at 1 h [13]: 30%
Drug metabolism (Plasma [14]): Metabolite_Detected
SMILES: CCn1cc(-c2cc3c(-c4cccc(N5CCC[C@@H](N)C5)n4)n[nH]c3cn2)cn1
